Source: patent US20240217963A1, “RECEPTOR-INTERACTING PROTEIN 1 INHIBITORS, PREPARATIONS, AND USES THEREOF” (SIRONAX LTD., priority 2021, published 2024)

What follows are compounds tested against T1, RIP1 (Homo sapiens, UniProt Q13546) (assay: Cellular RIP1 inhibitory activity: HT-29 necroptosis (TNFα/SMAC mimetic/zVAD-FMK) CellTiter-Glo viability assay). Conditions: HT-29 cells, TNF-α 10 ng/ml + SMAC mimetic 6 μM + zVAD-FMK 10 μM, 20 hours, geometric mean, read-out: EC50 Values of in vitro Cellular RIP1 Inhibitory Activity.
T1 sequence (Q13546 1-671): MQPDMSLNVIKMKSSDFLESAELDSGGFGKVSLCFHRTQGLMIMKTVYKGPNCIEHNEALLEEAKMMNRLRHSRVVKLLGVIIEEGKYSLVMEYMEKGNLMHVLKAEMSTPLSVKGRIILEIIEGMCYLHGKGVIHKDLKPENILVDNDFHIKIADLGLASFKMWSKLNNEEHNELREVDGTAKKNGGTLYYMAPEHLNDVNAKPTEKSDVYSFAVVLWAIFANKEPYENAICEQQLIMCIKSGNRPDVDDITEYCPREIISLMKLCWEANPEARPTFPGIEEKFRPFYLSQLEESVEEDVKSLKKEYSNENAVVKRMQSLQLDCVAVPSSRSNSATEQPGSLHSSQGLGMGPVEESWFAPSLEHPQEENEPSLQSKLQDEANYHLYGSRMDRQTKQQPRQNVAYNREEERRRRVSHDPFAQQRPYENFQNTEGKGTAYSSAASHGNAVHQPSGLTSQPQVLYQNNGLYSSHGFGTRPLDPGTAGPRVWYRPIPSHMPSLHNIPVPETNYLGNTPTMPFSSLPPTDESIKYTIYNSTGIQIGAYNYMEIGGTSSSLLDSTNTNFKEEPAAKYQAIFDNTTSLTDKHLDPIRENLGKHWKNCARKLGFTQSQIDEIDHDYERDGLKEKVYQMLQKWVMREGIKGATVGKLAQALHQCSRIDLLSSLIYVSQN
Assay type: cell-based
Procedure: Compounds 1-99 (denoted as Cmpd Nos. 1 through 99 in Table 2 below) of the disclosure were tested for binding and cellular RIP1 inhibitory activity following the experimental procedures described below. Cell Seeding • 1. HT-29 cells were checked every day to make sure that they were healthy and growing as expected. They were subjected to sub-culturing when they were approximately 80% confluent. • 2. The culture medium, McCOY's 5 A medium (Gibco, Cat No. 16600-082) with 10% fetal bovine serum or FBS (Gibco, Cat No. 10099-141C), was pre-warmed in a 37° C. water bath for at least 30 min. • 3. When the cells had reached a desired level of confluency of 80% in a T75 flask, the medium was aspirated, and the cells were washed with warm phosphate buffered saline or PBS two times. • 4. 2-3 ml fresh warm trypsin (Gibco, Cat No. 25200-056) solution was added to the washed cells. The flask with the cells was transferred to a 37° C. incubator. • 5. After 5 minutes, the side of the flask was tapped, and the flask was examined under a microscope for detachment of the cells to the flask. If necessary, the cells were kept in the incubator for an additional 5-10 minutes, with occasional tapping, until lifting was complete. • 6. The trypsin reaction was neutralized by transferring 6-9 ml cell culture medium to sterile 15 ml conical tubes, and by centrifuging the cell culture at 300×g for 7 minutes to pellet the cells (supernatant decanted). • 7. The cells were resuspended in fresh cell culture medium and the cell counting was performed using a hemocytometer. • 8. 100 μl of the resuspended cell culture medium containing ˜5,000 cells were transferred into each well of the sterile 96-well cell culture plate (Corning 3903) and cultured overnight at 37° C. with 5% CO2. Compound Titration and Treatment • 1. All test compounds were dissolved in DMSO (Dimethyl sulfoxide) to create a 20 mM stock. • 2. 3 μl of each compound 20 mM stock was mixed with 27 μl DMSO, and the compound solution was further diluted at a titration ratio of 1:3 (20 μl compound solution+40 μl DMSO) till the 10 points end. • 3. All culture medium was removed from assay plates filled with HT-29 cell cultures. […] 0.5 μL of the diluted compound solution was added to the corresponding 96-well assay plates. • 5. The assay plates were incubated for 20 hours at 37° C. with 5% CO2. Cell Viability Detection • 1. The CellTiter-Glo® Luminescent Cell Viability Assay was employed to detect the ATP levels of viable HT-29 cells. • 2. The CellTiter-Glo® buffer and the lyophilized substrate were equilibriated to room temperature prior to use. • 3. The CellTiter-Glo® substrate was resuspended with CellTiter-Glo® buffer, then mixed by gently vortexing to obtain a homogeneous solution. • 4. 20 μl the enzyme/substrate mixture was transferred by multi-channel pipetting into 96-well assay plates. • 5. The assay plates were placed on an orbital shaker and the contents were shaken for 3 minutes to induce cell lysis. • 6. The assay plates were incubated at room temperature for 10 minutes to stabilize the luminescent signal. • 7. The luminescence signals were read and recorded with EnVision. • 8. The geometric mean EC50 values were calculated from 10 points response dose with duplicates. In Table 2, activity is provided as follows: +++=0.1 nM≤EC50<100 nM; ++=100 nM≤EC50<1000 nM; +=1000 nM≤EC50<10000 nM.

Structure (SMILES) | EC50 [nM]
Cc1cnn(C)c1-c1nc(N2CCC(C(=O)N(O)Cc3cnco3)CC2)ncc1F [Compound 23, 1-(4-(1,4-dimethyl-1H-pyrazol-5-yl)-5-fluoropyrimidin-2-yl)-N-hydroxy-N-(oxazol-5-ylmethyl)piperidine-4-carboxamide] | 0.1 to 100
Cc1ncc(CN(O)C(=O)C2CCN(c3ncc(F)c(-c4c(C)cnn4C)n3)CC2)s1 [Compound 24, 1-(4-(1,4-dimethyl-1H-pyrazol-5-yl)-5-fluoropyrimidin-2-yl)-N-hydroxy-N-((2-methylthiazol-5-yl)methyl)piperidine-4-carboxamide] | 0.1 to 100
Cc1cnn(C)c1-c1nc(N2CCC(C(=O)N(O)Cc3cccnc3F)CC2)ncc1F [Compound 25, 1-(4-(1,4-dimethyl-1H-pyrazol-5-yl)-5-fluoropyrimidin-2-yl)-N-((2-fluoropyridin-3-yl)methyl)-N-hydroxypiperidine-4-carboxamide] | 0.1 to 100
Cc1cnn(C)c1-c1nc(N2CCC(C(=O)N(O)Cc3ccc(F)nc3)CC2)ncc1F [Compound 26] | 0.1 to 100
Cc1cnn(C)c1-c1nc(N2CCC(C(=O)N(O)Cc3ccnn3C)CC2)ncc1F [Compound 27, 1-(4-(1,4-dimethyl-1H-pyrazol-5-yl)-5-fluoropyrimidin-2-yl)-N-hydroxy-N-((1-methyl-1H-pyrazol-5-yl)methyl)piperidine-4-carboxamide] | 100 to 1000
Cc1cnn(C)c1-c1nc(N2CCC(C(=O)NCC3CCCCC3)CC2)ncc1F [Compound 28, N-(cyclohexylmethyl)-1-(4-(1,4-dimethyl-1H-pyrazol-5-yl)-5-fluoropyrimidin-2-yl)piperidine-4-carboxamide] | 0.1 to 100
Cc1cnn(C)c1-c1nc(N2CCN(C(=O)N(O)Cc3cc(F)cc(F)c3)CC2)ncc1F [Compound 29, N-(3,5-difluorobenzyl)-4-(4-(1,4-dimethyl-1H-pyrazol-5-yl)-5-fluoropyrimidin-2-yl)-N-hydroxypiperazine-1-carboxamide] | 0.1 to 100
O=C(C1CCN(c2ncc(F)cn2)CC1)N(O)Cc1cc(F)cc(F)c1 [Compound 30, N-(3,5-difluorobenzyl)-1-(5-fluoropyrimidin-2-yl)-N-hydroxypiperidine-4-carboxamide] | 100 to 1000
Cc1cnn(C)c1-c1nc(N2CCC(C(=O)N(O)Cc3ccccn3)CC2)ncc1F [Compound 31, 1-(4-(1,4-dimethyl-1H-pyrazol-5-yl)-5-fluoropyrimidin-2-yl)-N-hydroxy-N-(pyridin-2-ylmethyl)piperidine-4-carboxamide] | 0.1 to 100
Cc1cnn(C)c1-c1nc(N2CCC(C(=O)N(O)Cc3cc(F)cc(C#N)c3)CC2)ncc1F [Compound 32, N-(3-cyano-5-fluorobenzyl)-1-(4-(1,4-dimethyl-1H-pyrazol-5-yl)-5-fluoropyrimidin-2-yl)-N-hydroxypiperidine-4-carboxamide] | 0.1 to 100
Cc1cnn(C)c1-c1nc(N2CCC(C(=O)N(O)Cc3ccccc3)CC2)ncc1F [Compound 33, N-benzyl-1-(4-(1,4-dimethyl-1H-pyrazol-5-yl)-5-fluoropyrimidin-2-yl)-N-hydroxypiperidine-4-carboxamide] | 0.1 to 100
Cc1cnn(C)c1-c1nc(N2CCC(C(=O)N(O)C(C)c3ccccc3)CC2)ncc1F (centres unmarked) [Compound 34, 1-(4-(1,4-dimethyl-1H-pyrazol-5-yl)-5-fluoropyrimidin-2-yl)-N-hydroxy-N-(1-phenylethyl)piperidine-4-carboxamide] | 0.1 to 100
Cc1cnn(C)c1-c1nc(N2CCC(C(=O)N[C@@H](CO)c3ccccc3)CC2)ncc1F [Compound 35, (R)-1-(4-(1,4-dimethyl-1H-pyrazol-5-yl)-5-fluoropyrimidin-2-yl)-N-(2-hydroxy-1-phenylethyl)piperidine-4-carboxamide] | 0.1 to 100
Cc1cnn(C)c1-c1nc(N2CCC(C(=O)N[C@H](CO)c3ccccc3)CC2)ncc1F [Compound 36, (S)-1-(4-(1,4-dimethyl-1H-pyrazol-5-yl)-5-fluoropyrimidin-2-yl)-N-(2-hydroxy-1-phenylethyl)piperidine-4-carboxamide] | 1000 to 10000
Cc1cnn(C)c1-c1nc(N2CCC(C(=O)N(O)Cc3cncc(F)c3)CC2)ncc1F [Compound 37, 1-(4-(1,4-dimethyl-1H-pyrazol-5-yl)-5-fluoropyrimidin-2-yl)-N-((5-fluoropyridin-3-yl)methyl)-N-hydroxypiperidine-4-carboxamide] | 0.1 to 100
Cc1cnn(C)c1-c1nc(N2CCC(C(=O)N(O)Cc3cccnc3)CC2)ncc1F [Compound 38, 1-(4-(1,4-dimethyl-1H-pyrazol-5-yl)-5-fluoropyrimidin-2-yl)-N-hydroxy-N-(pyridin-3-ylmethyl)piperidine-4-carboxamide] | 0.1 to 100
Cc1cnn(C)c1-c1nc(N2CCC(C(=O)N(O)Cc3nccn3C)CC2)ncc1F [Compound 39, 1-(4-(1,4-dimethyl-1H-pyrazol-5-yl)-5-fluoropyrimidin-2-yl)-N-hydroxy-N-((1-methyl-1H-imidazol-2-yl)methyl)piperidine-4-carboxamide] | 1000 to 10000
Cc1cnn(C)c1-c1nc(N2CCC(C(=O)N(O)Cc3cncn3C)CC2)ncc1F [Compound 40, 1-(4-(1,4-dimethyl-1H-pyrazol-5-yl)-5-fluoropyrimidin-2-yl)-N-hydroxy-N-((1-methyl-1H-imidazol-5-yl)methyl)piperidine-4-carboxamide] | 1000 to 10000
Cc1cnn(C)c1-c1cc(N2CCC(C(=O)N(O)Cc3cc(F)cc(F)c3)CC2)ncn1 [Compound 41, N-(3,5-difluorobenzyl)-1-(6-(1,4-dimethyl-1H-pyrazol-5-yl)pyrimidin-4-yl)-N-hydroxypiperidine-4-carboxamide] | 0.1 to 100
Cc1cnn(C)c1-c1cc(N2CCC(C(=O)NCc3cc(F)cc(F)c3)CC2)ncn1 [Compound 42, N-(3,5-difluorobenzyl)-1-(6-(1,4-dimethyl-1H-pyrazol-5-yl)pyrimidin-4-yl)piperidine-4-carboxamide] | 100 to 1000
Cc1cnn(C)c1-c1nc(N2CCC(C(=O)NCc3cc(C)n(C)n3)CC2)ncc1F [Compound 43, N-((1,5-dimethyl-1H-pyrazol-3-yl)methyl)-1-(4-(1,4-dimethyl-1H-pyrazol-5-yl)-5-fluoropyrimidin-2-yl)piperidine-4-carboxamide] | 1000 to 10000
Cc1cnn(C)c1-c1nc(N2CCC(C(=O)NCc3ccn(C)n3)CC2)ncc1F [Compound 44, 1-(4-(1,4-dimethyl-1H-pyrazol-5-yl)-5-fluoropyrimidin-2-yl)-N-((1-methyl-1H-pyrazol-3-yl)methyl)piperidine-4-carboxamide] | 1000 to 10000
Cc1cnn(C)c1-c1nc(N2CCC(C(=O)NCc3cnn(C)c3)CC2)ncc1F [Compound 45, 1-(4-(1,4-dimethyl-1H-pyrazol-5-yl)-5-fluoropyrimidin-2-yl)-N-((1-methyl-1H-pyrazol-4-yl)methyl)piperidine-4-carboxamide] | 1000 to 10000
